Tests used:
HepG2 cells [1] = assay: cell death, FITC Annexin V kit, flow cytometry; assay type: cell-based, human; conditions: 40 μM, 12 h
Method: Fig. 4 CH004 arrests the cell cycle at the S phase. a CH004 reduces the cell viability of HEK293T and HepG2 cells. HEK293T or HepG2 cells were treated with indicated concentrations of CH004 for 24 h before the cell number was analyzed using the CellTiter96® Aqueous One Solution Cell Proliferation Assay (Promega, Materials and Methods). The means at each concentration of one representative experiment are shown as percentages of DMSO (control, 100%). Means ± SDs (n = 3). b Overexpression of hCBS or knock-down of hCBS counteracts the growth inhibition exerted by CH004 in HEK293T cells. Indicated HEK293T stable cell lines were treated with the CH004 or DMSO for 24 h. Then, the cell viability was quantified with the CellTiter 96® Aqueous One Solution Cell Proliferation Assay under the standard protocol (Promega). […] The efficacy for CBS overexpression and knock-down in HEK293T cells was determined by Western blotting using an anti-CBS antibody (3E1, 1:2000; Abnova). c CH004 induces cell death in HEK293T and HepG2 cells. […] HEK293T cells were incubated with indicated compounds for 12 h, and the DNA content was quantified with propidium iodide to analyze the cell cycle distribution by flow cytometry (e). The cell cycle distributions for HEK293T-shNT and HEK293T-shCBS cells were accordingly analyzed and are shown in f. […]

HepG2 cells [2] = assay: intracellular total glutathione (Cayman kit); assay type: cell-based, human; conditions: 24 h
Method: Then, the cells from two wells were collected by cell scraper and washed once with PBS. The intracellular total glutathione (GSH) was measured with a commercial glutathione assay kit under the standard protocol (Cayman Chemical, Ann Arbor, USA). […] Supernatant was then collected after centrifugation at 12,000 × g for 15 min at 4 °C before the deproteination by adding an equal volume of 2.5 M metaphosphoric (MPA, Sigma). After the incubation for 5 min, the mixture was centrifuged at 3000 × g for 5 min. The supernatant was collected and added appropriate amount of 4 M triethanolamine (Sigma, 50 μl per 1 ml of the supernatant). The deproteinated and neutralized supernatant was used for the determination of the amount of total GSH by incubating with the assay reagents (from the kit) in a 96-well plate. After an incubation of 25 min, the absorbance at 405 nm was recorded and converted into the amount of GSH with a standard curve.

[3] = test system: HEK293T cells expressing CBS Q222A mutant; assay: cell viability of HEK293T stable line expressing CBS Q222A; assay type: cell-based; conditions: 10 µM, 24 h
Method: Figure S15. The mode of actions for CH004 in cells. […] Indicated HEK293T stable cell lines were treated with CH004 at a concentration of 10 µM for 24 h, and the cell viability was then measured using the CellTiter96® Aqueous One Solution Cell Proliferation Assay (Promega). Means ± SDs (n=3). (B-C) CH004 or erastin triggers ferroptosis in mouse embryonic fibroblasts (MEF). WT MEF cells were treated with CH004 or erastin at indicated concentrations in the presence or the absence of 500 µM DFO for 24 h before measuring the lipid ROS with 2 μM BODIPY® 581/591 C11 (Materials and methods). […] Erastin at micromolar concentrations were incubated with HepG2 cells for 24 h before measuring the lipid ROS (see above and Materials and methods). […] Means ± SDs (n=3). […] CH004 or erastin at a concentration of 20 µM was incubated with HepG2 cells for 48 h or 72 h in the presence or the absence of 100 µM DFO. The cell viability was accordingly quantified using the CellTiter96® Aqueous One Solution Cell Proliferation Assay (Promega) and the results were shown as percentages of DMSO (control, 100%). Means ± SDs (n=3). All the experiments were independently repeated at least twice and one representative result is present. Table S1 The inhibitory effects of CH004 on purified hCBS, hCSE and hDDC.

SMILES: Cn1nc(Cc2ccccc2)nc2c(=O)n(C)c(=O)nc1-2 [CH004, 3-benzyl-1,6-dimethylpyrimido[5,4-e][1,2,4]triazine-5,7(1H,6H)-dione]
- increase in cell death (HepG2 cells [1]): ~ 80%
- intracellular pool of glutathione (GSH) (HepG2 cells [2]): dose-dependently deplete
- cell death triggered by CH004 in cells expressing CH004-insensitive CBS Q222A [3]: partially rescues

— paper PMC6158189, “A pharmacological probe identifies cystathionine β-synthase as a new negative regulator for ferroptosis” (Cell Death & Disease, 2018)
